The results in this text go back to patent publication US9593307B2, “Defined media for expansion and maintenance of pluripotent stem cells” (Janssen Biotech, Inc., priority 2012, dated 2017).

Test [1] deals with human embryonic stem cell line H1. The experiment in a line: Real-time PCR of pluripotency and differentiation genes. The format is cell-based. Particulars: passage 3, Example 5. From the text:
After passage 5, only IH-1 and IH-3 were further compared to the cells cultured in mTeSR®1 media (Catalog No. 05850, Stem-Cell Technologies, Inc., Vancouver BC, Canada). […]
Approximately 1% of the cells were SOX17+ (FIG. 7D) and ˜85% of the cells were FOXA2+ (FIG. 7E). FIG. 8A to FIG. 8F show images of immunofluorescence staining of H1 cells cultured in IH-3 media for 18 passages. These images illustrate that a significant number of OCT4 and SOX2 positive cells were also FOXA2+. H1 cells cultured in IH3 media had acquired a phenotype where at least 70% of the cells were OCT4+ NANOG+ SOX2+ KI-67+ ZFP42− and FOXA2+. This represents a population of cells not yet described in the art.
In general terms: Quantitative PCR measures a nucleic acid by following its amplification.

For test [2] the test system is unchanged. The test is described as follows: Culture in test media: growth and colony morphology (phase-contrast). The format is cell-based. Particulars: Example 5. How it is done:
Cells of the human embryonic stem cell line H1 (at passage 35 to passage 40), cultured on MATRIGEL™ (Catalog No. 354230, 1:30 dilution; Corning Incorporated, Corning, N.Y.) coated dishes in mTeSR®1 media (Catalog No. 05850, Stem-Cell Technologies, Inc., Vancouver BC, Canada) and passaged using ethylenediaminetetraacetic acid (“EDTA”), were used as the starting population to test various media compositions. Cells were passaged as small colonies using 5-10 min EDTA (Catalog No. #170711E, Lonza Walkersville, Inc., Walkersville, Md.) treatment at room temperature. Cultures were routinely split in a ratio of 1:6 to 1:10 at each passage. Table I lists the initial media formulations tested for their ability to proliferate H1 cells while maintaining their undifferentiated morphology and pluripotency markers.
Media IH-1, IH-3, and IH-6 were selected for further evaluation.

Setting [3] is: day 4 following seeding, IH-3-2 media with the given BSA.
The mark [4] stands for this setting: passage 3, IH-3-2 media with the given BSA.

For “Sigma BSA: 2% Sigma BSA (catalog No. A2153; Lot: 061M1804V, Sigma Aldrich) used to supplement IH-3-2 media”, the “Markers associated with a differentiated cell (AFP, MIXL1, T (BRY); PCR)” value in test [1] is “significant upregulation”. For the same substance, the Cell morphology entry in test [2] (setting [3]) and in test [2] (setting [4]) was “morphological evidence of differentiated cells” in each case. Also, the Confluency of cells result in test [2] (passage 3, compared to fatty acid free BSA) is “significant drop in confluency”.
On to “fatty acid-free BSA: fatty-acid free BSA (Catalog No. 7500804; Lot: 11G54001, LAMPIRE Biological Laboratories) in IH-3-2 media”, for which the Cell morphology result in test [2] (setting [3]) and in test [2] (setting [4]) was “no gross differentiated cell morphology evident” each time.
